According to publication PMC5881531 (FEBS Open Bio, 2018):

Molecular target: T1, Dihydroorotate dehydrogenase of Trypanosoma brucei (TbDHODH), FMN-free form (Trypanosoma brucei, UniProt Q57U83, A115V)
T1 construct: gene Tb927.5.3830
Assay: biochemical

T1 sequence (Q57U83 whole entry A115V): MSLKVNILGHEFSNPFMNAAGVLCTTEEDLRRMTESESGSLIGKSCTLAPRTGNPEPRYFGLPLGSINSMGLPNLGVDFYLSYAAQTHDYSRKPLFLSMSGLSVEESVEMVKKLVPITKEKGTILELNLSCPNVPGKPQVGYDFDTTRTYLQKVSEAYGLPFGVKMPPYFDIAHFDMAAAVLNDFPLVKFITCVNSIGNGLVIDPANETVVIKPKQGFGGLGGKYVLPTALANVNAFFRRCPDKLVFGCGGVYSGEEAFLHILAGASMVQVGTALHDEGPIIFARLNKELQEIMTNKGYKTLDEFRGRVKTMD

Cc1cc2nc3c(=O)[nH]c(=O)nc-3n(C[C@H](O)[C@H](O)[C@H](O)COP(=O)(O)O)c2cc1C [FMN]
Kd: 12 nM
